Source: ChEMBL document CHEMBL1201862, “PubChem BioAssay data set” (2004)
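In this assay, cells in 96-well plates receive the compound at five concentrations for 48 hours. Endpoints are linearly interpolated between the surrounding concentrations. GI50 marks 50% less growth.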 Calls of active or inactive are those of the source. Rule as the data show it: active = GI50 up to about 1.1 µM and inactive = higher. Peptide text beside a SMILES is read from it.

How the values were obtained:
Experiment in all cases: NCI anticancer screen, dose series, 48 h
SF-295 = test system: SF-295
BT-549 = test system: BT-549
NCI/ADR-RES = test system: NCI/ADR-RES
A498 = test system: A498
MDA-MB-435 = test system: MDA-MB-435
K562 = test system: K562
SK-OV-3 = test system: SK-OV-3
UACC-62 = test system: UACC-62
SR = test system: SR
OVCAR-8 = test system: OVCAR-8
OVCAR-3 = test system: OVCAR-3
SF-539 = test system: SF-539
MDA-N = test system: MDA-N
NCI-H460 = test system: NCI-H460
HCT-15 = test system: HCT-15
SW-620 = test system: SW-620
A549 = test system: A549
HCT-116 = test system: HCT-116
HT-29 = test system: HT-29
U-251 = test system: U-251
Hs-578T = test system: Hs-578T
UACC-257 = test system: UACC-257
CAKI-1 = test system: CAKI-1
Malme-3M = test system: Malme-3M
MOLT-4 = test system: MOLT-4
KM12 = test system: KM12
NCI-H23 = test system: NCI-H23
DU-145 = test system: DU-145
OVCAR-5 = test system: OVCAR-5
SK-MEL-5 = test system: SK-MEL-5
T47D = test system: T47D
HCC 2998 = test system: HCC 2998
TK-10 = test system: TK-10
SF-268 = test system: SF-268
SN12C = test system: SN12C
SNB-19 = test system: SNB-19
MDA-MB-231 = test system: MDA-MB-231
SK-MEL-2 = test system: SK-MEL-2
SK-MEL-28 = test system: SK-MEL-28
NCI-H226 = test system: NCI-H226
IGROV-1 = test system: IGROV-1
M14 = test system: M14
EKVX = test system: EKVX
RPMI-8226 = test system: RPMI-8226
NCI-H522 = test system: NCI-H522
CCRF-CEM = test system: CCRF-CEM
LOX IMVI = test system: LOX IMVI
HL-60 = test system: HL-60
HOP-92 = test system: HOP-92
HOP-62 = test system: HOP-62
PC-3 = test system: PC-3
MCF7 = test system: MCF7
SNB-75 = test system: SNB-75
786-0 = test system: 786-0
ACHN = test system: ACHN
UO-31 = test system: UO-31
COLO 205 = test system: COLO 205
OVCAR-4 = test system: OVCAR-4
RXF 393 = test system: RXF 393

Measured: GI50

C=C1CC(Cn2cc(Br)c(=O)[nH]c2=O)(c2ccc(-c3ccccc3)cc2)OC1=O (stereo unspecified)
active: A498 0.776 µM | K562 0.2 µM | UACC-62 1.12 µM | SR 0.32 µM | OVCAR-8 0.466 µM | MDA-N 0.83 µM | SW-620 0.341 µM | HCT-116 0.301 µM | HT-29 0.469 µM | UACC-257 0.836 µM | MOLT-4 0.552 µM | NCI-H23 0.993 µM | TK-10 0.432 µM | SK-MEL-28 0.221 µM | RPMI-8226 0.128 µM | NCI-H522 0.655 µM | CCRF-CEM 0.165 µM | LOX IMVI 0.582 µM | HL-60 0.0975 µM | HOP-92 0.0308 µM | MCF7 0.427 µM | 786-0 1.02 µM | COLO 205 0.621 µM
1.61 µM: HCT-15
inactive: SF-295 4.45 µM | BT-549 1.66 µM | NCI/ADR-RES 1.41 µM | MDA-MB-435 1.35 µM | SK-OV-3 4.31 µM | OVCAR-3 1.63 µM | SF-539 1.37 µM | NCI-H460 6.25 µM | A549 5.31 µM | U-251 5.92 µM | Hs-578T 2.74 µM | CAKI-1 1.13 µM | Malme-3M 1.56 µM | KM12 1.52 µM | DU-145 1.66 µM | OVCAR-5 4.8 µM | SK-MEL-5 1.27 µM | T47D 2 µM | HCC 2998 1.66 µM | SF-268 2.02 µM | SN12C 1.9 µM | SNB-19 12.6 µM | MDA-MB-231 3.08 µM | SK-MEL-2 1.49 µM | NCI-H226 1.83 µM | IGROV-1 1.4 µM | M14 1.43 µM | EKVX 2.16 µM | HOP-62 4.23 µM | PC-3 1.55 µM | SNB-75 4.49 µM | ACHN 1.83 µM | UO-31 2.03 µM | OVCAR-4 2.13 µM

CCC(C)C(NC(=O)C(NC(=O)C(CC(N)=O)NC(=O)CN)C(C)O)C(=O)NC(C(=O)NC(C)C(=O)NC(C(=O)NC(CCC(=O)O)C(=O)NC(CC(C)C)C(=O)NC(CC(=O)O)C(=O)NC(C(=O)NC(Cc1ccc(O)cc1)C(=O)N1CCCC1C(=O)O)C(C)O)C(C)C)C(C)C (stereo unspecified) (H-GNTIVAVELDTYP-OH; configuration not given here)
> 50 µM: HCT-15
inactive: SF-295 > 50 µM | BT-549 > 50 µM | NCI/ADR-RES > 50 µM | MDA-MB-435 > 50 µM | K562 > 50 µM | SK-OV-3 > 50 µM | UACC-62 > 50 µM | SR > 50 µM | OVCAR-8 > 50 µM | OVCAR-3 > 50 µM | SF-539 > 50 µM | MDA-N > 50 µM | NCI-H460 > 50 µM | SW-620 > 50 µM | RXF 393 > 50 µM | A549 > 50 µM | HCT-116 > 50 µM | HT-29 > 50 µM | U-251 > 50 µM | Hs-578T > 50 µM | UACC-257 > 50 µM | CAKI-1 > 50 µM | Malme-3M > 50 µM | MOLT-4 > 50 µM | KM12 > 50 µM | NCI-H23 > 50 µM | DU-145 > 50 µM | OVCAR-5 > 50 µM | SK-MEL-5 > 50 µM | T47D > 50 µM | HCC 2998 > 50 µM | TK-10 > 50 µM | SF-268 > 50 µM | SN12C > 50 µM | SNB-19 > 50 µM | MDA-MB-231 18.9 µM | SK-MEL-2 > 50 µM | SK-MEL-28 > 50 µM | NCI-H226 > 50 µM | IGROV-1 > 50 µM | M14 > 50 µM | EKVX > 50 µM | RPMI-8226 > 50 µM | NCI-H522 > 50 µM | CCRF-CEM > 50 µM | LOX IMVI > 50 µM | HL-60 > 50 µM | HOP-92 > 50 µM | HOP-62 > 50 µM | PC-3 > 50 µM | MCF7 > 50 µM | SNB-75 > 50 µM | 786-0 > 50 µM | ACHN > 50 µM | UO-31 > 50 µM | COLO 205 > 50 µM | OVCAR-4 > 50 µM
